Experimental findings from patent publication US11584714B2 (priority 2018, dated 2023) are described below.

Structures are written as SMILES. Where a name gives a salt, the structure may show the parent alone.

Chain of MASP-2 (CCP1-CCP2-SP) (O00187 445-686): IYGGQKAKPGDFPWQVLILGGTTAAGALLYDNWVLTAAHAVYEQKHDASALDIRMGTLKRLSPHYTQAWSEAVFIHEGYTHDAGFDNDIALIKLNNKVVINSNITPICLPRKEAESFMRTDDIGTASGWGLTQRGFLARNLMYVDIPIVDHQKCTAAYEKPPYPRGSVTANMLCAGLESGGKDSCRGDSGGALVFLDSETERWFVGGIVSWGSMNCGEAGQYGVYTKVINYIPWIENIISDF

One assay concerns the target MASP-2 (CCP1-CCP2-SP) (Homo sapiens (Human), UniProt O00187). The assay can be described thus: biochemical.
Conditions: not given
Format: biochemical.
Usually Ki stands for the equilibrium dissociation constant of an inhibitor or competing ligand from its target. Turning to `N=C(N)c1ccc2[nH]c(-c3nc4ccccc4[nH]3)nc2c1` [compound 2009, 1H,1′H-[2,2′-bibenzo[d]imidazole-5-carboximidamidedihydrochloride], the Ki was above 25000 nM.

Staying with this assay, now noted: +Zn; read-out: MASP-2 Ki.
In the case of `N=C(N)c1ccc2[nH]c(-c3nc4ccccc4[nH]3)nc2c1` [compound 2009, 1H,1′H-[2,2′-bibenzo[d]imidazole-5-carboximidamidedihydrochloride], the Ki was below 500 nM.

Staying with this assay, now noted: MASP-2 inhibition versus thrombin.
Turning to `C[C@H](NC(=O)[C@H](N)CCc1ccccc1)C(=O)NCc1ccc(C(=N)N)cc1` [compound 1024], the “MASP-2 vs. thrombin selectivity” value is “** (5.0 to 25-fold)”.

In the case of `C[C@H](NC(=O)[C@H](N)CCc1cccc(Cl)c1)C(=O)NCc1ccc(C(=N)N)cc1` [compound 1081], the “MASP-2 vs. thrombin selectivity” value is on record as “** (5.0 to 25-fold)”.

Consider `C[C@H](NC(=O)[C@H]1Cc2c([nH]c3ccccc23)CN1)C(=O)NCc1ccc(C(=N)N)cc1` [compound 1097], for which the “MASP-2 vs. thrombin selectivity” value was “*** (25 to 100-fold)”.

With `C[C@H](NC(=O)[C@H](N)CCc1cc(Cl)cc(Cl)c1)C(=O)NCc1ccc(C(=N)N)cc1` [compound 1118], the “MASP-2 vs. thrombin selectivity” value is given as “** (5.0 to 25-fold)”.

As to `C[C@H](NC(=O)[C@@H](CCc1ccccc1)NCc1ccc(C(=O)N2CCOCC2)cc1)C(=O)NCc1ccc(C(=N)N)cc1` [compound 1153], the “MASP-2 vs. thrombin selectivity” value is “**** (>100-fold)”.

The same assay, now with this note: read-out: MASP-2 Ki.
On to `C[C@H](NC(=O)[C@H](N)CCc1ccccc1)C(=O)NCc1cccc(Cl)c1` [compound 1021], for which the Ki was below 10000 nM.

As to `C[C@H](NC(=O)[C@H]1C=C(c2ccccc2)CN1)C(=O)NCc1ccc(C(=N)N)cc1` [compound 1032], the Ki was below 500 nM.

Consider `N=C(N)c1ccc(CNC(=O)C(CF)NC(=O)[C@H](N)CCc2ccccc2)cc1` (stereo partly drawn) [compound 1050, (2R)-2-Amino-N-(1-((4-carbamimidoylbenzyl)amino)-3-fluoro-1-oxopropan-2-yl)-4-phenylbutanamide Dihydrochloride], for which the Ki was below 500 nM.

As for `N[C@H](CCc1ccccc1)C(=O)N1CCC[C@H]1C(=O)NCc1cc(Cl)ccc1O` [compound 1079, (S)-1-((R)-2-Amino-4-phenylbutanoyl)-N-(5-chloro-2-hydroxybenzyl)pyrrolidine-2-carboxamide], the inhibitory constant (Ki) is below 500 nM.

`C[C@H](NC(=O)[C@H](N)CCc1ccc(C(F)(F)F)cc1)C(=O)NCc1ccc(C(=N)N)cc1` [compound 1119, (R)-2-Amino-N—((S)-1-((4-carbamimidoylbenzyl)amino)-1-oxopropan-2-yl)-4-(4-(trifluoromethyl)phenyl)butanamide Dihydrochloride]: the Ki is below 500 nM.

For `C[C@H](NC(=O)[C@@H](CCc1ccccc1)NCc1ccc(N2CCNCC2)cc1)C(=O)NCc1ccc(C(=N)N)cc1` [compound 1148, (R)—N—((S)-1-((4-Carbamimidoylbenzyl)amino)-1-oxopropan-2-yl)-4-phenyl-2-((4-(piperazin-1-yl)benzyl)amino)butanamide], the inhibitory constant (Ki) was below 500 nM.

For `Cc1ccc(-c2c[nH]c(C(=O)N[C@@H](C)C(=O)NCc3ccc(C(=N)N)cc3)c2)cc1F` [compound 1235, (S)—N-(1-((4-Carbamimidoylbenzyl)amino)-1-oxopropan-2-yl)-4-(3-fluoro-4-methylphenyl)-1H-pyrrole-2-carboxamide], the Ki was below 500 nM.

Staying with this assay, now noted: selectivity for MASP-2 inhibition versus thrombin.
For `Cc1ccc(-c2c[nH]c(C(=O)N[C@@H](C)C(=O)NCc3ccc(C(=N)N)cc3)c2)cc1F` [compound 1235, (S)—N-(1-((4-Carbamimidoylbenzyl)amino)-1-oxopropan-2-yl)-4-(3-fluoro-4-methylphenyl)-1H-pyrrole-2-carboxamide], the “MASP-2 vs. thrombin selectivity” value is “*** (≥25 to <100-fold)”.

`C[C@H](NC(=O)[C@H](N)CCc1ccccc1)C(=O)NCc1cc(Cl)ccc1C#N` [compound 1313, Trifluoroacetate salt]: the “MASP-2 vs. thrombin selectivity” value is on record as “* (≥1.0 to <5.0-fold)”.

Turning to `COc1cc(C[C@@H]2CN[C@@H](C(=O)N[C@@H](C)C(=O)NCc3cc(Cl)ccc3-n3cnnn3)C2)cc(OC)c1` [compound 1419, (2R,4S)—N—((S)-1-((5-Chloro-2-(JH-tetrazol-1-yl)benzyl)amino)-1-oxopropan-2-yl)-4-(3,5-dimethoxybenzyl)pyrrolidine-2-carboxamide Trifluoroacetate salt], the “MASP-2 vs. thrombin selectivity” value is reported as “* (≥1.0 to <5.0-fold)”.

Another assay deals with human α-thrombin (Homo sapiens (Human), UniProt P00734). Kind of assay: Enzymatic assay for thrombin (Boc-VPR-AMC substrate). Format: biochemical. The conditions noted are these: Zn/EDTA condition not given; read-out: Thrombin Ki.
Take `N=C(N)c1ccc(CNC(=O)Cn2c(=O)n(Cc3ccccc3)c(=O)c3ccc(C(N)=O)cc32)cc1` [compound 2017, ((4-((2-(3-Benzyl-7-carbamoyl-2,4-dioxo-3,4-dihydroquinazolin-1(2H)-yl)acetamido)methyl)phenyl)(imino)methyl)-λ^5-azaneyl Acetate]: the Ki is above 25000 nM.

Take `CNC(=O)c1ccc2c(=O)n(Cc3ccccc3)c(=O)n(CC(=O)NCc3ccc(C(=N)N)cc3)c2c1` [compound 2018, 3-Benzyl-1-(2-((4-carbamimidoylbenzyl)amino)-2-oxoethyl)-N-methyl-2,4-dioxo-1,2,3,4-tetrahydroquinazoline-7-carboxamide]: the Ki is above 25000 nM.

In the case of `CCCCCn1c(=O)c2ccccc2n(CC(=O)Nc2ccc(NC(C)=O)cc2)c1=O` [compound 2019], the Ki was above 25000 nM.

`CCCCn1c(=O)c2ccccc2n(CC(=O)Nc2ccc(NC(C)=O)cc2)c1=O` [compound 2020]: the Ki is above 25000 nM.

The assay is the same for the next values; noted with them: read-out: Thrombin Ki.
As to `N=C(N)c1ccc(CNC(=O)[C@@H]2CCN2C(=O)[C@H](N)C2CC2)cc1` [compound 1002, (S)-1-((R)-2-Amino-2-cyclopropylacetyl)-N-(4-carbamimidoylbenzyl)azetidine-2-carboxamide], the inhibition constant Ki is below 500 nM.

For the molecule `N=C(N)c1ccc(CNC(=O)[C@@H]2CCN2C(=O)[C@H]2CCCN2)cc1` [compound 1003], the inhibition constant Ki was below 500 nM.

On to `N=C(N)NCCCNC(=O)[C@@H]1CCN1C(=O)[C@H](N)C1CCCCC1` [compound 1004, (S)-1-((R)-2-Amino-2-cyclohexylacetyl)-N-(3-guanidinopropyl)azetidine-2-carboxamide Hydrochloride], for which the inhibitory constant (Ki) is below 500 nM.

As for `CC(C)(C)[C@@H](N)C(=O)N1CC[C@H]1C(=O)NCc1ccc(C(=N)N)cc1` [compound 1005], the Ki was below 500 nM.

Turning to `C[C@H](NC(=O)[C@H](N)CCc1ccccc1)C(=O)NCCCCNC(=N)N` [compound 1010], the Ki was above 25000 nM.

Consider `C[C@H](NC(=O)[C@H]1C[C@H](c2ccccc2)CN1)C(=O)NCc1ccc(N)nc1` [compound 1012], for which the inhibitory constant (Ki) was above 25000 nM.

For `C[C@H](NC(=O)[C@H](N)CCc1ccccc1)C(=O)NCc1ccc(CN)cc1` [compound 1014], the inhibition constant (Ki) is above 25000 nM.

`N=C(N)c1ccc(CNC(=O)[C@@H]2CCN2C(=O)[C@H]2CC3CCCCC3N2)cc1` (some centres unmarked) [compound 1026]: the Ki is below 500 nM.

Turning to `N=C(N)c1ccc(CNC(=O)[C@@H]2CCN2C(=O)[C@H](NCC(=O)O)C2CC2)cc1` [compound 1028, ((R)-2-((S)-2-((4-carbamimidoylbenzyl)carbamoyl)azetidin-1-yl)-1-cyclopropyl-2-oxoethyl)glycine], the Ki was below 500 nM.

In the case of `C[C@H](NC(=O)[C@H](N)CCc1ccc(F)cc1)C(=O)NCc1ccc(C(=N)N)cc1` [compound 1047], the inhibitory constant (Ki) is below 500 nM.

`C[C@H](NC(=O)[C@H]1C[C@H](c2ccccc2)CN1)C(=O)NCc1ccc(C(=N)NO)cc1` [compound 1070]: the inhibition constant (Ki) is above 25000 nM.

Consider `CC(=O)N[C@@H](C(=O)N1CC[C@H]1C(=O)NCc1ccc(C(=N)N)cc1)C1CCCCC1` [compound 1077], for which the Ki was below 500 nM.

Consider `CN(CC(=O)NCc1ccc(C(=N)N)cc1)C(=O)[C@H](NCC(=O)O)C1CCCCC1` [compound 1096], for which the Ki is below 500 nM.

`N=C(N)c1ccc(CNC(=O)[C@@H]2CCN2C(=O)[C@H](NCC(=O)O)c2ccccc2)cc1` [compound 1100]: the inhibition constant (Ki) was below 500 nM.

As to `N=C(N)c1ccc(CNC(=O)[C@@H]2CCN2C(=O)[C@H](NCC(N)=O)C2CCCCC2)cc1` [compound 1102, (S)-1-((R)-2-((2-amino-2-oxoethyl)amino)-2-cyclohexylacetyl)-N-(4-carbamimidoylbenzyl)azetidine-2-carboxamide], the Ki was below 500 nM.

Take `CC[C@H](NC(=O)[C@H](NCC(=O)O)C1CCCCC1)C(=O)NCc1ccc(C(=N)N)cc1` [compound 1106]: the inhibitory constant (Ki) is below 500 nM.

With `CC(C)N(CC(=O)NCc1ccc(C(=N)N)cc1)C(=O)[C@H](NCC(=O)O)C1CCCCC1` [compound 1117], the Ki was below 500 nM.

In the case of `CC(C)(C)OC(=O)N[C@@H](C(=O)N1CCC[C@H]1C(=O)NCc1ccc(C(=N)N)cc1)C1CCCCC1` [compound 1138], the Ki is below 500 nM.

On to `N=C(N)c1ccc(CNC(=O)[C@H]2CCCCN2C(=O)[C@H](NCC(=O)O)C2CCCCC2)cc1` [compound 1154], for which the Ki was below 500 nM.

For the molecule `C[C@H](NC(=O)[C@H](N)CCc1ccccc1)C(=O)NCc1ccc(C(=N)NO)cc1` [compound 1157, (R)-2-Amino-N—((S)-1-((4-(N-hydroxycarbamimidoyl)benzyl)amino)-1-oxopropan-2-yl)-4-phenylbutanamide Dihydrochloride], the Ki was above 25000 nM.

For the molecule `N=C(N)c1ccc(CNC(=O)[C@@H]2CCN2C(=O)[C@H](N)CC2CCCCC2)cc1` [compound 1158], the Ki was below 500 nM.

On to `C[C@H](NC(=O)[C@H](N)CCc1ccccc1)C(=O)NCc1cc(Cl)ccc1Cl` [compound 1192], for which the Ki is above 25000 nM.

Turning to `Cc1cc(N)nc(C)c1CNC(=O)[C@H](C)NC(=O)[C@H](N)CCc1ccccc1` [compound 1213], the inhibitory constant (Ki) is above 25000 nM.

`C[C@H](NC(=O)[C@H]1C[C@@H](c2ccccc2)CN1)C(=O)NCc1ccc(N)nc1` [compound 1255, (2R,4S)—N—((S)-1-(((6-Aminopyridin-3-yl)methyl)amino)-1-oxopropan-2-yl)-4-phenylpyrrolidine-2-carboxamide]: the inhibitory constant (Ki) is above 25000 nM.

Turning to `Cc1nc(N)ccc1CNC(=O)[C@H](C)NC(=O)[C@H]1C[C@@H](c2cccc(CN)c2)CN1` [compound 1291, (2R,4S)—N—((S)-1-(((6-Amino-2-methylpyridin-3-yl)methyl)amino)-1-oxopropan-2-yl)-4-(3-(aminomethyl)phenyl)pyrrolidine-2-carboxamide], the inhibition constant (Ki) was above 25000 nM.

Take `CCOC(=O)NC(=N)c1ccc(CNC(=O)[C@H](C)NC(=O)[C@H]2C[C@H](c3ccccc3)CN2)cc1` [compound 1294, Ethyl (imino(4-(((S)-2-((2R,4R)-4-phenylpyrrolidine-2-carboxamido)propanamido)methyl)phenyl)methyl)carbamate]: the inhibition constant (Ki) was above 25000 nM.
